Data on 18 molecules can be found in PubChem BioAssay AID330 (DTP/NCI, 2004).

The subject of the test is P388 leukemia ip, CD2F1 mice, survival T/C. Kind of test: NCI In Vivo Anticancer Drug Screen. Data for tumor model P388 Leukemia (intraperitoneal) in CD2F1 (CDF1) mice. The following applies: endpoint: median survival time, higher = longer survival. In short, it runs like this:
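Mice carrying the transplanted tumor received test compound or vehicle. Survival was recorded in each group, and the value is the treated-group measurement divided by that of the vehicle-treated control group.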

Where [1] appears, read: dose: 60.0 mg/kg/injection, schedule: Q01DX005 (ip), vehicle: saline with Tween-80.
Where [2] appears, read: dose: 50.0 mg/kg/injection, schedule: Q01DX009 (ip), vehicle: Klucel (hydroxypropylcellulose) (HPC).
[3] abbreviates: dose: 100.0 mg/kg/injection, schedule: Q01DX009 (ip), vehicle: Klucel (hydroxypropylcellulose) (HPC).
Where [4] appears, read: dose: 12.5 mg/kg/injection, schedule: Q01DX009 (ip), vehicle: saline with Tween-80.
[5] abbreviates: dose: 25.0 mg/kg/injection, schedule: Q01DX009 (ip), vehicle: saline with Tween-80.
[6] abbreviates: dose: 50.0 mg/kg/injection, schedule: Q01DX009 (ip), vehicle: saline with Tween-80.
Setting [7] is: dose: 50.0 mg/kg/injection, schedule: Q01DX009 (ip), vehicle: saline.
The mark [8] stands for this setting: dose: 100.0 mg/kg/injection, schedule: Q01DX009 (ip), vehicle: saline.

Structures are written as SMILES. Several values for one entry are separate records, joined by “and”; a condition that tells them apart may be missing. Equal entries are not always repeated. Inconclusive results and toxic doses are left out.

On to `Cc1nc2c(O)ccc(O)c2nc1C`, for which the T/C is, setting by setting: (dose: 3.75 mg/kg/injection, schedule: Q01DX009 (ip), vehicle: saline with Tween-80) 99 % of control; (dose: 3.75 mg/kg/injection, schedule: Q04DX003 (ip), vehicle: saline with Tween-80) 100 % of control; (dose: 7.5 mg/kg/injection, schedule: Q01DX009 (ip), vehicle: saline with Tween-80) 94 % of control; (dose: 7.5 mg/kg/injection, schedule: Q04DX003 (ip), vehicle: saline with Tween-80) 99 % of control; (dose: 15.0 mg/kg/injection, schedule: Q01DX009 (ip), vehicle: saline with Tween-80) 88 % of control; (dose: 15.0 mg/kg/injection, schedule: Q04DX003 (ip), vehicle: saline with Tween-80) 106 % of control. For the same molecule, the T/C is, setting by setting: (dose: 30.0 mg/kg/injection, schedule: Q01DX009 (ip), vehicle: saline with Tween-80) 95 % of control; (dose: 30.0 mg/kg/injection, schedule: Q04DX003 (ip), vehicle: saline with Tween-80) 109 % of control; (dose: 60.0 mg/kg/injection, schedule: Q01DX009 (ip), vehicle: saline with Tween-80) 110 % of control; (dose: 60.0 mg/kg/injection, schedule: Q04DX003 (ip), vehicle: saline with Tween-80) 109 % of control.

Consider `Cc1cccc(N=Nc2c(-c3ccccc3)nn(C(N)=S)c2C)c1C`, for which the T/C reads like this: (dose: 100.0 mg/kg/injection, schedule: Q04DX002 (ip), vehicle: Klucel (hydroxypropylcellulose) (HPC)) 94 % of control; (dose: 200.0 mg/kg/injection, schedule: Q04DX002 (ip), vehicle: Klucel (hydroxypropylcellulose) (HPC)) 105 % of control; (dose: 400.0 mg/kg/injection, schedule: Q04DX002 (ip), vehicle: Klucel (hydroxypropylcellulose) (HPC)) 94 % of control.

For the molecule `Oc1cc2c(cc1C(Nc1ncccn1)c1ccc(F)cc1)OCO2` (configuration not stated), the T/C was 99 % of control under setting [1]; 91 % of control (dose: 120.0 mg/kg/injection, schedule: Q01DX005 (ip), vehicle: saline with Tween-80); 92 % of control (dose: 240.0 mg/kg/injection, schedule: Q01DX005 (ip), vehicle: saline with Tween-80).

Regarding `O=C(O)CCC(=O)N(CCP(c1ccccc1)c1ccccc1)CCP(c1ccccc1)c1ccccc1`, the T/C under setting [2] is 111 % of control and the T/C under setting [3] is 112 % of control.

For `COC1=CC(=Nc2ccc(N(CCCl)CCCl)cc2)C=CC1=O`, the T/C is, setting by setting: (dose: 25.0 mg/kg/injection, schedule: Q01DX009 (ip), vehicle: Klucel (hydroxypropylcellulose) (HPC)) 159 % of control; under setting [2], 151 % of control and 154 % of control; under setting [3], 159 % of control and 174 % of control.

Take `CCCCC(CC)COC(OCC(CC)CCCC)C(OCC(CC)CCCC)OCC(CC)CCCC` (configuration not stated): the T/C runs as follows: (dose: 100.0 mg/kg/injection, schedule: Q04DX003 (ip), vehicle: saline with Tween-80) 100 % of control; (dose: 200.0 mg/kg/injection, schedule: Q04DX003 (ip), vehicle: saline with Tween-80) 100 % of control; (dose: 400.0 mg/kg/injection, schedule: Q04DX003 (ip), vehicle: saline with Tween-80) 100 % of control.

In the case of `COc1cccc2c1C(=O)c1c(O)c3c(c(O)c1C2=O)CC(O)(/C(C)=N/NC(=O)CCCCC(=O)N/N=C(\C)C1(O)Cc2c(O)c4c(c(O)c2C(OC2CC(N)C(O)C(C)O2)C1)C(=O)c1c(OC)cccc1C4=O)CC3OC1CC(N)C(O)C(C)O1` (configuration not stated), the T/C (dose: 0.2 mg/kg/injection, schedule: Q01DX009 (ip), vehicle: water) was 118 % of control; the T/C (dose: 0.78 mg/kg/injection, schedule: Q01DX009 (ip), vehicle: water) is 154 % of control; the T/C (dose: 1.56 mg/kg/injection, schedule: Q01DX009 (ip), vehicle: water) was 157 % of control and 172 % of control; the T/C (dose: 3.13 mg/kg/injection, schedule: Q01DX009 (ip), vehicle: water) is 186 % of control and 189 % of control; the T/C (dose: 6.25 mg/kg/injection, schedule: Q01DX009 (ip), vehicle: water) was 281 % of control and 289 % of control; the T/C (dose: 12.5 mg/kg/injection, schedule: Q01DX009 (ip), vehicle: water) was 100 % of control and 102 % of control.

On to `CCCCOCN(COCCCC)c1ccc(C)cc1`, for which the T/C runs as follows: under setting [4], 88 % of control; under setting [5], 104 % of control; under setting [6], 112 % of control.

For the molecule `COc1cccc2c1C(=O)c1c(O)c3c(c(O)c1C2=O)C[C@@](O)(C(C)=O)CC3OC1CC(NC(=O)C(C)N)C(O)C(C)O1` (some centres not stated), the T/C by setting is: (dose: 6.25 mg/kg/injection, schedule: Q04DX003 (ip), vehicle: saline) 108 % of control; (dose: 12.5 mg/kg/injection, schedule: Q04DX003 (ip), vehicle: saline) 115 % of control; (dose: 50.0 mg/kg/injection, schedule: Q04DX003 (ip), vehicle: saline) 150 % of control.

Turning to `CC1=C(Br)C(c2ccccc2)=Nc2ccccc2N1`, the T/C was 123 % of control under setting [4], 116 % of control under setting [5], 119 % of control under setting [7] and 110 % of control under setting [8].

On to `C=C(C)C1CC2(C)C(C)C(OC(=O)/C(C)=C/C)CCC2C(OC(=O)C=C(C)C)C1=O` (configuration not stated), for which the T/C is, setting by setting: (dose: 75.0 mg/kg/injection, schedule: Q04DX002 (ip), vehicle: Klucel (hydroxypropylcellulose) (HPC)) 99 % of control; (dose: 150.0 mg/kg/injection, schedule: Q04DX002 (ip), vehicle: Klucel (hydroxypropylcellulose) (HPC)) 98 % of control; (dose: 300.0 mg/kg/injection, schedule: Q04DX002 (ip), vehicle: Klucel (hydroxypropylcellulose) (HPC)) 106 % of control.

With `O=C1/C(=C/c2ccccc2O)SC(=S)N1C1CC1`, the T/C was 100 % of control under setting [6]; 90 % of control (dose: 100.0 mg/kg/injection, schedule: Q01DX009 (ip), vehicle: saline with Tween-80); 95 % of control (dose: 200.0 mg/kg/injection, schedule: Q01DX009 (ip), vehicle: saline with Tween-80).

`O=C1NN2CCN=C2c2cccnc21`: the T/C is 100 % of control (dose: 3.75 mg/kg/injection, schedule: Q01DX005 (ip), vehicle: saline with Tween-80); 95 % of control (dose: 7.5 mg/kg/injection, schedule: Q01DX005 (ip), vehicle: saline with Tween-80); 100 % of control and 93 % of control (dose: 15.0 mg/kg/injection, schedule: Q01DX005 (ip), vehicle: saline with Tween-80); 101 % of control under setting [1].

Regarding `CC1=CNC(=O)CC(C)(C)C1`, the T/C runs as follows: (dose: 50.0 mg/kg/injection, schedule: Q01DX005 (ip), vehicle: saline with Tween-80) 105 % of control; (dose: 100.0 mg/kg/injection, schedule: Q01DX005 (ip), vehicle: saline with Tween-80) 105 % of control; (dose: 200.0 mg/kg/injection, schedule: Q01DX005 (ip), vehicle: saline with Tween-80) 104 % of control.

As for `CC(=O)OC(C)C(O)C(O)C(/C=C/C1CC=CC(=O)O1)OC(C)=O` (configuration not stated), the T/C runs as follows: (dose: 8.25 mg/kg/injection, schedule: Q01DX005 (ip), vehicle: Klucel (hydroxypropylcellulose) (HPC)) 108 % of control; (dose: 16.5 mg/kg/injection, schedule: Q01DX005 (ip), vehicle: Klucel (hydroxypropylcellulose) (HPC)) 104 % of control; (dose: 33.0 mg/kg/injection, schedule: Q01DX005 (ip), vehicle: Klucel (hydroxypropylcellulose) (HPC)) 104 % of control; (dose: 66.0 mg/kg/injection, schedule: Q01DX005 (ip), vehicle: Klucel (hydroxypropylcellulose) (HPC)) 95 % of control.

Consider `O=c1[nH]c2cc([N+](=O)[O-])ccc2nc1/C=C(\O)c1ccccc1`, for which the T/C by setting is: (dose: 60.0 mg/kg/injection, schedule: Q01DX005 (ip), vehicle: Klucel + Tween-80) 100 % of control; (dose: 120.0 mg/kg/injection, schedule: Q01DX005 (ip), vehicle: Klucel + Tween-80) 92 % of control; (dose: 240.0 mg/kg/injection, schedule: Q01DX005 (ip), vehicle: Klucel + Tween-80) 92 % of control.

For the molecule `CCN1c2ccccc2S(=O)(=O)n2c(/C=C/c3ccc(OC)cc3)nnc21`, the T/C by setting is: (dose: 100.0 mg/kg/injection, schedule: Q01DX001 (ip), vehicle: saline with Tween-80) 90 % of control; (dose: 200.0 mg/kg/injection, schedule: Q01DX001 (ip), vehicle: saline with Tween-80) 88 % of control.

Turning to `NS(=O)(=O)c1ccc2c(=O)c(C(=O)O)c[nH]c2c1`, the T/C is, setting by setting: (dose: 1.56 mg/kg/injection, schedule: Q01DX009 (ip), vehicle: saline) 98 % of control; (dose: 3.12 mg/kg/injection, schedule: Q01DX009 (ip), vehicle: saline) 92 % of control; (dose: 6.25 mg/kg/injection, schedule: Q01DX009 (ip), vehicle: saline) 92 % of control; under setting [7], 101 % of control; under setting [8], 96 % of control.
